Results taken from ChEMBL document CHEMBL1124496, “Darmstoff analogues. 3. Actions of choline esters of acetal phosphatidic acids on visceral smooth muscle” (1989).

Species: Cavia porcellus
Assay: Effective dose for relaxation of guinea pig taenia coli strips
Format: functional
`CCCCCCCC/C=C/CCCCCCCC1OCC(COP(=O)([O-])OCC[N+](C)(C)C)O1` (cis isomer) gave an ED60 of 200 µM.
For `CCCCCCCCCCCCCCCC1OCC(COP(=O)([O-])OCC[N+](C)(C)C)O1` (stereo not drawn), the ED60 was 57 µM.
For `CCCCC/C=C/C/C=C/CCCCCCCC1OCC(COP(=O)([O-])OCC[N+](C)(C)C)O1` (stereo not drawn), the ED60 was 50 µM.
